# Results taken from patent US20250270173A1, “PYRIDINE DERIVATIVES FOR TREATING PSYCHIATRIC DISORDERS” (GILGAMESH PHARMACEUTICALS, INC., priority 2022, published 2025).
# Where “and” joins values, the source holds several entries; their conditions need not be identical. Identical values can stand only once. Like-named read-outs stand apart in the source and are kept apart here.
# Experiments:
# [1] = molecular target: human 5-HT2C receptor (Homo sapiens (Human), UniProt P28335); test: FLIPR Ca2+ flux functional assay at 5-HT2C (Eurofins DiscoverX); type: cell-based; settings: Ca2+ flux, human 5-HT2C; for 5-HT2C % Act @ Max Conc.: at max concentration; for EC50: read-out: 5-HT2C EC50
# Description: Functional Assays at 5-HT2C Receptors. […] Probenecid was prepared fresh. Cells were loaded with dye prior to testing and incubated at 37° C. for 30-60 minutes. After dye loading, cells were removed from the incubator and 10 μL HBSS/20 mM Hepes was added. 3× vehicle was included in the assay buffer. Cells were incubated for 30 mins at room temperature in the dark to equilibrate plate temperature. Intermediate dilution of sample stocks was performed to generate 4× sample in assay buffer. Compound agonist activity was measured on a FLIPR Tetra (MDS). Calcium mobilization was monitored for 2 minutes and 10 μL 4× sample in HBSS/20 mM Hepes was added to the cells 5 seconds into the assay.
# [2] = molecular target: T1, 5-HT2A receptor (Homo sapiens (Human), UniProt P28223); test: 5-HT2A receptor radioligand binding with [3H]ketanserin; settings: read-out: Ki at 5-HT2A Receptor (nM) ([3H]ketanserin); HEK293 stable cell line, 1 nM [3H]ketanserin, 1 h, 25 °C
# [3] = system: C57BL/6 mice; test: Manual head twitch response (HTR) assay in mice; type: in vivo; settings: SC; for ED50: 20 min observation
# Description: Agonists of the 5-HT2A receptor are well known to induce this effect in rodents and the potency of this HTR is correlated with hallucinogenic potency in humans.
# (§1) Animals. Adult male C57BL/6 mice aged 8-10 weeks (body weight 20-25 g) were used in these experiments. Animals were housed under controlled temperatures and 12-hour light/dark cycles (lights on between 07:00-19:00 h), with ad libitum food and water. The protocol was approved by the Institutional Animal Care and Use Committee at the study site. This study was carried out in strict accordance with the recommendations in the Guide for the Care and Use of Laboratory Animals of the National Institutes of Health. All efforts were made to minimize suffering.
# Drugs and Drug administration. DOI was commercially obtained. All other compounds were synthesized as described above. All drugs were administered subcutaneously (SC) dissolved in saline vehicle (or saline acidified with 1-2 molar equivalents HCl to form the salt in situ for freebase compounds) and at a volume of 10 mL/kg. Drugs were administered at 4 or 5 doses per compound, using n=6 animals/group. Doses were calculated on the basis of the freebase form, except for DOT, which was calculated based on the HCl salt.
# Procedure. Mice were administered one dose of the drug (or vehicle) SC and immediately placed into a small open field for behavioral observation. Animals were observed continuously for 20 mins and the number of head twitches (HTs) were counted by an observer blind to the treatment condition.
# (§2) Statistical Analysis. Analysis was performed using GraphPad Prism 9. Dose-response curves were fit via non-linear regression using the Gaussian 2020 function in Prism in order to determine the ED50 and Emax for each compound.
# [4] = molecular target: 5-HT2B receptor (Homo sapiens (Human), UniProt P41595); test: FLIPR Ca2+ flux functional assay at 5-HT2B (HEK293); settings: for 5-HT2B % Act @ Max Conc.: HEK293, at max concentration
# [5] = molecular target: T1, 5-HT2A receptor; test: FLIPR Ca2+ flux functional assay at 5-HT2A (HEK293); settings: for 5-HT2A % Act @ Max Conc.: Ca2+ flux, HEK293, at max concentration
# [6] = molecular target: 5-HT1A receptor (Homo sapiens (Human), UniProt P08908); test: FLIPR Ca2+ flux functional assay at 5-HT1A (CHO cells); settings: for 5-HT1A % Act @ Max Conc.: Ca2+ flux, CHO cells, at max concentration
# [7] = system: C57BL/6 mice; test: Automated (video tracking) head twitch response (HTR) assay in mice; type: in vivo; settings: SC; for ED50: 20 min recording; for Most Efficacious Dose; mg/kg: dose giving the most HTR
# Description: Disclosed compounds were tested for their ability to induce a head twitch response (HTR) in mice using an automated video tracking procedure, with the results summarized in Table 5. […] The phenyl Compound 44 was substantially more efficacious at inducing HTR than its pyridine counterpart Compound 29, in agreement with the generally lower maximal efficacy of the disclosed pyridine compounds for signaling through 5-HT2A receptors.
# as §1
# Drugs and Drug Administration. […] was commercially obtained. Disclosed compounds were synthesized as described above. They were administered subcutaneously (SC) dissolved in saline (or saline acidified with 1-2 molar equivalents HCl to form the salt in situ for freebase compounds) at a volume of 10 mL/kg. Five doses were tested, with N=5-8 animals/group. Doses were calculated on the basis of the freebase, except for DOI, which was calculated based on the HCl salt.
# Procedure. Mice were administered one dose of the drug and immediately placed into a small open field for behavioral observation. High-speed video of animals' behavior was captured continuously for 20 min. Video recordings were imported into an image processing software, which detects multiple points of interest on each animal's body, including the left and right ear. HTR events were defined as periodic deviations of ear locations from temporally averaged ear locations. Predefined thresholds for magnitude and frequency of location deviations were used to filter […] events from random head movements. The method was validated by comparing detected events with manual (human) observations and found to have an accuracy >95%. The total number of HTR events counted during the 20-min recording were determined for each animal at each dose.
# as §2
# [8] = Mus musculus, 20 min, read-out: ED50
# Chain of 5-HT2B receptor (P41595 whole entry, looked up): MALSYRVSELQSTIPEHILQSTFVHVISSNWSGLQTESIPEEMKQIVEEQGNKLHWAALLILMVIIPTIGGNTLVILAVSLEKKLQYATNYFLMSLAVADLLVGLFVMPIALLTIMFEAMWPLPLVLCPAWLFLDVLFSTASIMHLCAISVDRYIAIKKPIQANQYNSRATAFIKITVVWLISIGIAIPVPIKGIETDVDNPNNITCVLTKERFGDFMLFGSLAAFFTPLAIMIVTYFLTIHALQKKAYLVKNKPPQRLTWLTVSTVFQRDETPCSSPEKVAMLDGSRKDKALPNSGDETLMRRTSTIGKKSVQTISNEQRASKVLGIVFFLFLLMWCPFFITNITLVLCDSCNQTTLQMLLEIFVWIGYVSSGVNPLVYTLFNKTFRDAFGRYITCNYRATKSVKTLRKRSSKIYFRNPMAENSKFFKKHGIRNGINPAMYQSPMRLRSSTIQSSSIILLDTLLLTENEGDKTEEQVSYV
# Chain of human 5-HT2C receptor (P28335 whole entry, looked up): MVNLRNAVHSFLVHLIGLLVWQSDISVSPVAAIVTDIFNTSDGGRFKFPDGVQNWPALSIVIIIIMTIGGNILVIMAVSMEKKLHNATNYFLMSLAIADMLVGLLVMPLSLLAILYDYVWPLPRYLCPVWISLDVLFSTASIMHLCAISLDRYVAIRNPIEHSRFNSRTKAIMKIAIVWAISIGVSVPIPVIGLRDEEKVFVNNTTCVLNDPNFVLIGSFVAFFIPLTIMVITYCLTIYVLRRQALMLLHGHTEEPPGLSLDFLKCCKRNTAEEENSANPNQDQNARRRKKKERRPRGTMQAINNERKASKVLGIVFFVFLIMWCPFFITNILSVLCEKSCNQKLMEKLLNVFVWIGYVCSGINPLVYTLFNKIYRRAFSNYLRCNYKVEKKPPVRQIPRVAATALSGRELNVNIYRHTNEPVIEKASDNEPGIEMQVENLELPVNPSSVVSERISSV
SMILES,5-HT2C % Act @ Max Conc. [1] [%],EC50 [1] [nM],Ki [2] [nM],"ED50 [3, 8] [mg/kg]",Emax (HTR counts/20 min) [3] [HTR counts/20 min],5-HT2B % Act @ Max Conc. ([4]; Ca2+ flux) [%],EC50 [5] [nM],5-HT2A % Act @ Max Conc. [5],EC50 [6] [nM],5-HT1A % Act @ Max Conc. [6] [%],EC50 [4] [nM],"ED50 [7, 8] [mg/kg]",Emax (HTR counts/20 min) [7] [HTR counts/20 min],# HTR/20 min at Most Efficacious Dose [7] [HTR/20 min],Most Efficacious Dose; mg/kg [7],ED50 [3] [mg/kg],"EC50 ([4]; read-out: 5-HT2B EC50, Ca2+ flux, HEK293) [nM]",ED50 [7] [mg/kg]
"CCCCCc1cc(OC)c(CC(N)CC)nc1OC (centres unmarked) [Compound 1, 1-(3,6-dimethoxy-5-pentylpyridin-2-yl)butan-2-amine]",44.38,5470,40,0.897,18.78,0.18,115,25% and 25.3%,20200,188,,,,,,,,
"CCCCCc1cc(OC)c(CCN)nc1OC [Compound 7, 2-(3,6-dimethoxy-5-pentylpyridin-2-yl)ethan-1-amine]",92.53,16.2,6.32,,,11.56,20,82.88%,51900,61.95,> 10000,4.88,24.61,23.25,(1) mg/kg,,,
"COc1cc(CC(C)N)c(OC)cc1I (centres unmarked) [DOI, reference compound]",92.6,0.818,,,35.7,86.3,,106%,,−2.47,,,82.02,81.5,(3.2) mg/kg,0.428,4.88,0.531
